Assay results from patent EP3046573B1, “AMYLIN ANALOGUES” (Zealand Pharma A/S, priority 2013, dated 2015).
Numbered stars: 1 amine (or outer) side, 2 acyl side, 3 side chain; on linkers, the order of the positions; unused ones are H or OH. Bridge positions count the residues as written; N and C are the ends. Square brackets hold non-standard residues; d marks the D form. Peptide text beside a SMILES is read from it. * marks the point of attachment. C20 diacid = O=C(O)CCCCCCCCCCCCCCCCCCC(=O)*; γGlu = O=C(O)[C@H](CCC(=O)[*:2])N[*:1]; NMeI = CC[C@H](C)[C@H](NC)C(=O)O; Sar = CNCC(=O)O

Key:
[1] = Solubility assessment (turbidity absorbance at 325 nm); assay type: physicochemical; conditions: stock 2 mg/ml diluted 1:1, ambient temperature (typically 25°C), n=1; for Solubility, Acetate buffer pH 4: 100 mM acetate buffer pH 4.0; for Solubility, Acetate buffer pH 5: 100 mM acetate buffer pH 5.0; for Solubility, Histidine buffer pH 6: 100 mM histidine buffer pH 6.0; for Solubility, Histidine buffer pH 7: 100 mM histidine buffer pH 7.0; for Solubility, Phosphate buffer pH 6: 100 mM phosphate buffer pH 6.0; for Solubility, Phosphate buffer pH 7: 100 mM phosphate buffer pH 7.0; for Solubility, Phosphate buffer pH 7.5: 100 mM phosphate buffer pH7.5
Method in brief: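 Stock 2 mg/ml peptide, H2O/HCl pH 2.5; 1:1 into 100 mM buffers: acetate pH 4.0/5.0, His pH 6.0/7.0, phosphate pH 6.0/7.0/7.5. A280 + A325, ~25°C, n=1. Soluble ≥ 1 mg/ml if A325 ≤ 0.02.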

[2] = Assessment of physical stability: fibril formation detected with Thioflavin T (ThT), lag-time; assay type: physicochemical; conditions: 1 mg/ml peptide, 40 µM ThT, FND = Fibrillation not detected; for Fibrillation lag time (hours) pH 4.0 (Ac): 50 mM acetate buffer pH 4.0, 96 hours at 40°C; for Fibrillation lag time (hours) pH 7.0 (Ph): 50 mM phosphate buffer pH 7.0, 96 hours at 40°C
Method: Solutions containing (i) 1 mg/ml of test peptide, 40 µM ThT and 50 mM phosphate (Ph) buffer (pH 7.0), (ii) 1 mg/ml of test peptide, 40 µM ThT and 50 mM histidine (His) buffer (pH 7.0), and (iii) 1 mg/ml of test peptide, 40 µM ThT and 50 mM acetate (Ac) buffer (pH 4.0), were loaded in a 96-well black fluorescence plate (clear bottom) in triplicate. Data were collected at fixed intervals of 10 min, each preceded by 300 s of automixing (agitation), over a period of 96 hours at 40° C. Physical stability, expressed as lag-time of fibril formation (in hours), was defined as the intersection between two linear regressions representing the initial stable phase and the growth phase.

[3] = target: T1, human calcitonin receptor (hCTR2) (Homo sapiens, UniProt P30988); assay: hCTR2 assay: induction of cAMP (AlphaScreen cAMP Assay kit) in COS7 cells expressing hCTR2; assay type: cell-based
T1 construct: expressed in transfected cells
T1 sequence (P30988 25-474): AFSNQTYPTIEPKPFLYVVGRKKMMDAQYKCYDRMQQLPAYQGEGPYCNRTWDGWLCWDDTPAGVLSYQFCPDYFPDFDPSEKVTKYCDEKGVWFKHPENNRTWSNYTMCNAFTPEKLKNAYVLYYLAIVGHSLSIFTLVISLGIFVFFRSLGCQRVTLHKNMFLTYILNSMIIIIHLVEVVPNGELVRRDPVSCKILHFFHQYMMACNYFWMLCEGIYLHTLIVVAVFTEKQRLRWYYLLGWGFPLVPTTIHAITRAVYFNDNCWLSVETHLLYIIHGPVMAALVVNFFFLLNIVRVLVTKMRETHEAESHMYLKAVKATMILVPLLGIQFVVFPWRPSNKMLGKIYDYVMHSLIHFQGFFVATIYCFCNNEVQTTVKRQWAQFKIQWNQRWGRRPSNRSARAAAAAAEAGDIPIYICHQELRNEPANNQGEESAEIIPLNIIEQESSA
Method in brief: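 Stable RAMP-naive COS7 clone expressing hCTR2 was stimulated with increasing peptide concentrations in Tyrode buffer (pH 7.4) with 100 µM IBMX and 0.1% casein for 15 min at 37° C. Cells were lysed and cAMP measured by AlphaScreen. EC50 and efficacy relative to pramlintide came from 4PL curve fits.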

[4] = target: T2, human amylin receptor 3 (hAMYR3) consisting of hCTR2 co-expressed with human Receptor Activity Modifying Protein 3 (hRAMP3) (Homo sapiens, UniProt O60896+P30988); assay: hAMYR3 assay: induction of cAMP (AlphaScreen cAMP Assay kit) in COS7 cells expressing hAMYR3; assay type: cell-based; conditions: cAMP induction in COS7 cells expressing hAMYR3; average of a minimum of 3 determinations; read-out: hAMY R3 EC50
T2 construct: expressed in transfected cells
T2 sequence (P30988 25-474): T1 sequence (P30988 25-474)
T2 sequence (O60896 24-148 partner): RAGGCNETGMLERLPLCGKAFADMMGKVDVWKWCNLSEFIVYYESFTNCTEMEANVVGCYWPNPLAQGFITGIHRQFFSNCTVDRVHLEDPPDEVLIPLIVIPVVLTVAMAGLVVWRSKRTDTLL
Method in brief: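 Stable COS7 clone co-expressing hCTR2 and hRAMP3, stimulated 15 min at 37° C with increasing peptide in Tyrode buffer pH 7.4 with 100 µM IBMX and 0.1% casein. cAMP measured by AlphaScreen after lysis; EC50 and % efficacy versus pramlintide from 4PL fit.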

Row | Compound | Solubility, Acetate buffer pH 4 [1] | Solubility, Acetate buffer pH 5 [1] | Solubility, Histidine buffer pH 6 [1] | Solubility, Histidine buffer pH 7 [1] | Solubility, Phosphate buffer pH 6 [1] | Solubility, Phosphate buffer pH 7 [1] | Solubility, Phosphate buffer pH 7.5 [1] | Fibrillation lag time (hours) pH 4.0 (Ac) [2] | Fibrillation lag time (hours) pH 7.0 (Ph) [2] | EC50 [3] [pM] | EC50 [4] [pM]
1 | CC[C@H](C)[C@@H](C(=O)N[C@@H](CC(C)C)C(=O)N[C@@H](CO)C(=O)N[C@@H](CO)C(=O)N[C@H](C(=O)N[C@@H](CC(N)=O)C(=O)N[C@H](C(=O)NCC(=O)N[C@@H](CO)C(=O)N[C@@H](CC(N)=O)C(=O)N[C@H](C(=O)N1CCC[C@H]1C(N)=O)[C@@H](C)O)C(C)C)[C@@H](C)O)N(C)C(=O)CN(C)C(=O)[C@H](Cc1ccccc1)NC(=O)[C@H](CC(N)=O)NC(=O)[C@H](CC(N)=O)NC(=O)[C@H](CO)NC(=O)[C@H](CO)NC(=O)[C@H](Cc1c[nH]cn1)NC(=O)[C@H](Cc1c[nH]cn1)NC(=O)[C@H](CC(C)C)NC(=O)[C@H](Cc1ccccc1)NC(=O)[C@H](CCC(=O)O)NC(=O)[C@H](C)NC(=O)[C@H](CC(C)C)NC(=O)[C@H](CCCNC(=N)N)NC(=O)[C@H](CCC(N)=O)NC(=O)[C@@H](NC(=O)[C@H](C)NC(=O)[C@@H]1CSSC[C@H](NC(=O)[C@H](CCCNC(=N)N)NC(=O)CC[C@H](NC(=O)CCCCCCCCCCCCCCCCCCC(=O)O)C(=O)O)C(=O)N[C@@H](CC(N)=O)C(=O)N[C@@H]([C@@H](C)O)C(=O)N[C@@H](C)C(=O)N[C@@H]([C@@H](C)O)C(=O)N1)[C@@H](C)O [Compound 2, [19CD]-isoGlu-RC()NTATC()ATQRLAEFLHHSSNNF-Gly(Me)-Ile(Me)-LSSTNVGSNTP-NH2] ({C20 diacid-γGlu}-RCNTATCATQRLAEFLHHSSNNF[Sar][NMeI]LSSTNVGSNTP-NH2; disulfide 2-7) | SS (SS indicates solubility ≥ 1mg/ml) | SS (SS indicates solubility ≥ 1mg/ml) | SS (SS indicates solubility ≥ 1mg/ml) | SS (SS indicates solubility ≥ 1mg/ml) | SS (SS indicates solubility ≥ 1mg/ml) | SS (SS indicates solubility ≥ 1mg/ml) | II (II indicates solubility ≤ 1 mg/ml) | FND^&& | FND^&& | 160 | 260
2 | CC[C@H](C)[C@@H](C(=O)N[C@@H](CC(C)C)C(=O)N1CCC[C@H]1C(=O)N1CCC[C@H]1C(=O)N[C@H](C(=O)N[C@@H](CC(N)=O)C(=O)N[C@H](C(=O)NCC(=O)N[C@@H](CO)C(=O)N[C@@H](CC(N)=O)C(=O)N[C@H](C(=O)N1CCC[C@H]1C(N)=O)[C@@H](C)O)C(C)C)[C@@H](C)O)N(C)C(=O)[C@@H]1CCCN1C(=O)CN(C)C(=O)[C@H](Cc1ccccc1)NC(=O)[C@H](CC(N)=O)NC(=O)[C@H](CC(N)=O)NC(=O)[C@H](CO)NC(=O)[C@H](CO)NC(=O)[C@H](Cc1c[nH]cn1)NC(=O)[C@H](Cc1c[nH]cn1)NC(=O)[C@H](CC(C)C)NC(=O)[C@H](Cc1ccccc1)NC(=O)[C@H](CCC(=O)O)NC(=O)[C@H](C)NC(=O)[C@H](CC(C)C)NC(=O)[C@H](CCCNC(=N)N)NC(=O)[C@H](CCC(N)=O)NC(=O)[C@@H](NC(=O)[C@H](C)NC(=O)[C@@H]1CSSC[C@H](NC(=O)[C@H](CCCNC(=N)N)NC(=O)CC[C@H](NC(=O)CCCCCCCCCCCCCCCCCCC(=O)O)C(=O)O)C(=O)N[C@@H](CC(N)=O)C(=O)N[C@@H]([C@@H](C)O)C(=O)N[C@@H](C)C(=O)N[C@@H]([C@@H](C)O)C(=O)N1)[C@@H](C)O [Compound 175, [19CD]-isoGlu-RC()NTATC()ATQRLAEFLHHSSNNF-Gly(Me)-P-Ile(Me)-LPPTNVGSNTP-NH2] ({C20 diacid-γGlu}-RCNTATCATQRLAEFLHHSSNNF[Sar]P[NMeI]LPPTNVGSNTP-NH2; disulfide 2-7) | SS (SS indicates solubility ≥ 1mg/ml) | SS (SS indicates solubility ≥ 1mg/ml) | SS (SS indicates solubility ≥ 1mg/ml) | SS (SS indicates solubility ≥ 1mg/ml) | SS (SS indicates solubility ≥ 1mg/ml) | SS (SS indicates solubility ≥ 1mg/ml) | II (II indicates solubility ≤ 1 mg/ml) | FND | FND | 200 | 200
